Measured values published in article PMC7686313, “Phase 1 study of mTORC1/2 inhibitor sapanisertib (TAK-228) in advanced solid tumours, with an expansion phase in renal, endometrial or bladder cancer” (British Journal of Cancer, 2020).
Read-outs that look alike come from different tables or passages of the source.

How the values were obtained:
[1] = tested on: p4EBP1, pS6, pPRAS40 and pNDRG1 (TORC1/2 biomarkers); experiment: Pharmacodynamics in skin biopsies (IHC); assay type: in vivo, human; settings: doses of ≥4 mg; baseline vs days 8–15 (3 h postdose) of cycle 1
Description: The tissue PK and PD of sapanisertib were investigated in skin and tumour biopsies. During dose escalation, 3-mm core skin biopsies were collected predose and on any day from 8–15 (3 h postdose) of cycle 1 for immunohistochemistry (IHC) assessment of mTORC1 downstream effects (p4EBP1, pS6) and pNDRG1 (Mosaic Laboratories, Lake Forest, CA). […] Archival tumour tissues for assessment of prognostic markers were collected at baseline.
During dose-escalation, the PD effect of sapanisertib on downstream effectors of TORC1 (p4EBP1 and pS6) and TORC2 (pPRAS40 and pNDRG1) was measured in skin-tissue biopsies from 88 patients collected at baseline and days 8–15 (3 h postdose) of cycle 1. […] PD data in tumour tissue were limited due to the small number of samples. For the five patients with paired tumour samples available for review (biopsies at baseline and cycle 1, week 2), the levels of p4EBP1, pS6, pPRAS40 and pNDRG1 decreased after sapanisertib treatment (Supplementary Fig. 4).

[2] = set-up: method as in PMID 26800393; settings: advanced haematological malignancies, cited from earlier work
[3] = Plasma pharmacokinetics (LC-MS/MS); assay type: in vivo, human; settings: for Cmax / AUC(0-t) / half-life / Tmax: human, plasma, oral
Description: Peripheral blood was collected serially to quantify plasma levels of sapanisertib for PK analysis via validated liquid chromatography tandem mass spectrometry with an assay range of 1–1000 ng/mL (MicroConstants, San Diego, CA), during both dose-escalation and expansion phases. Blood samples were collected before each dose and 0.5, 1, 2, 4, 8 and 24 h after dosing on cycle 1, day 1 and cycle 2, day 1, in the dose-escalation phase. In the expansion phase, samples were collected predose and 2, 4 and 6 h postdose on cycle 1, day 1, and then predose and 2 h postdose on day 8, 15 or 22 of cycle 1.

## CC(C)n1nc(-c2ccc3oc(N)nc3c2)c2c(N)ncnc21 [Sapanisertib]
[1]
  Change in p4EBP1, pS6, pPRAS40 and pNDRG1 in skin: Treatment-related decreases
[2]; QD dosing
  MTD: 4 mg
[2]; QD × 3dQW
  MTD: 9 mg
[3]; any of the schedules
  Plasma accumulation with repeat dosing: did not accumulate in plasma to any appreciable extent
[3]; cycle 1, day 1, 2 mg
  Tmax, median: 2.0 h
[3]; cycle 1, day 1, 4 mg
  Tmax, median: 2.0 h
[3]; cycle 1, day 1, 6 mg
  AUC0–last [%CV]: 124.3 (NA) ng*h/mL
  t½: 6.8 h
[3]; cycle 1, day 1, 7 mg
  Tmax, median: 1.5 h
[3]; cycle 1, day 1, 9 mg
  Tmax, median: 1.1 h
[3]; cycle 1, day 1, 12 mg
  Tmax, median: 2.0 h
[3]; cycle 1, day 1, 15 mg
  Tmax, median: 2.0 h
[3]; cycle 1, day 1, 16 mg
  AUC0–last [%CV]: 124.9 (NA) ng*h/mL
[3]; cycle 2, day 1, QD 2 mg
  Tmax, median: 2.0 h
[3]; cycle 2, day 1, QD 6 mg
  Tmax, median: 2.0 h
[3]; cycle 2, day 1, QDx3dQW 6 mg
  t½: 9.1 (NA) h
[3]; cycle 2, day 1, QDx3dQW 16 mg
  t½: 6.6 (2.29) h
[3]; cycle 2, day 1, QDx5dQW 10 mg
  Tmax, median: 2.0 h
[3]; cycle 2, day 1, QDx5dQW 13 mg
  Tmax, median: 2.0 h
[3]; cycle 2, day 1, QW 7 mg
  Cmax [%CV]: 65.8 (NA) ng/mL
  Tmax, median: 1 h
[3]; cycle 2, day 1, QW 10 mg
  Cmax [%CV]: 36.2 (NA) ng/mL
[3]; cycle 2, day 1, QW 15 mg
  Tmax, median: 2.0 h
[3]; cycle 2, day 1, QW 40 mg
  Tmax, median: 2.0 h
[3]; 2 mg, cycle 1, day 1, 2 mg
  Cmax: 13.5 ng/mL
[3]; 2 mg, cycle 1, day 1, 2 mg, read-out: AUC0–last [%CV]
  AUC(0-t): 65.4 ng·h/mL
[3]; 2 mg, cycle 2, day 1, QD 2 mg
  Cmax: 15.6 ng/mL
[3]; 2 mg, cycle 2, day 1, QD 2 mg, read-out: AUC0–24h [%CV]
  AUC(0-t): 185 ng·h/mL
[3]; 2 mg, cycle 2, day 1, QD 2 mg, read-out: t½ (converted)
  half-life: 486 min
[3]; 4 mg, cycle 1, day 1, 4 mg
  Cmax: 19.1 ng/mL
[3]; 4 mg, cycle 1, day 1, 4 mg, read-out: AUC0–24h [%CV]
  AUC(0-t): 178 ng·h/mL
[3]; 4 mg, cycle 1, day 1, 4 mg, read-out: AUC0–last [%CV]
  AUC(0-t): 63.2 ng·h/mL
[3]; 4 mg, cycle 1, day 1, 4 mg, read-out: t½ (converted)
  half-life: 426 min
[3]; 4 mg, cycle 2, day 1, QD 4 mg
  Cmax: 20.3 ng/mL
[3]; 4 mg, cycle 2, day 1, QD 4 mg, read-out: AUC0–24h [%CV]
  AUC(0-t): 281 ng·h/mL
[3]; 4 mg, cycle 2, day 1, QD 4 mg, read-out: AUC0–last [%CV]
  AUC(0-t): 61.9 ng·h/mL
[3]; 4 mg, cycle 2, day 1, QD 4 mg, read-out: Tmax, median
  Tmax: 3.8 h
[3]; 4 mg, cycle 2, day 1, QD 4 mg, read-out: t½ (converted)
  half-life: 618 min
[3]; 6 mg, cycle 1, day 1, 6 mg
  Cmax: 50.8 ng/mL
[3]; 6 mg, cycle 1, day 1, 6 mg, read-out: AUC0–24h [%CV]
  AUC(0-t): 354 ng·h/mL
[3]; 6 mg, cycle 2, day 1, QD 6 mg
  Cmax: 36.9 ng/mL
[3]; 6 mg, cycle 2, day 1, QD 6 mg, read-out: AUC0–24h [%CV]
  AUC(0-t): 327 ng·h/mL
[3]; 6 mg, cycle 2, day 1, QD 6 mg, read-out: t½ (converted)
  half-life: 438 min
[3]; 6 mg, cycle 2, day 1, QDx3dQW 6 mg
  Cmax: 59.2 ng/mL
[3]; 6 mg, cycle 2, day 1, QDx3dQW 6 mg, read-out: AUC0–24h [%CV]
  AUC(0-t): 777 ng·h/mL
[3]; 6 mg, cycle 2, day 1, QDx3dQW 6 mg, read-out: Tmax, median
  Tmax: 4 h
[3]; 7 mg, cycle 1, day 1, 7 mg
  Cmax: 46.7 ng/mL
[3]; 7 mg, cycle 1, day 1, 7 mg, read-out: AUC0–24h [%CV]
  AUC(0-t): 327 ng·h/mL
[3]; 7 mg, cycle 1, day 1, 7 mg, read-out: t½ (converted)
  half-life: 414 min
[3]; 7 mg, cycle 2, day 1, QD 7 mg
  Cmax: 51.3 ng/mL
[3]; 7 mg, cycle 2, day 1, QD 7 mg, read-out: AUC0–24h [%CV]
  AUC(0-t): 351 ng·h/mL
[3]; 7 mg, cycle 2, day 1, QD 7 mg, read-out: Tmax, median
  Tmax: 4 h
[3]; 7 mg, cycle 2, day 1, QD 7 mg, read-out: t½ (converted)
  half-life: 338 min
[3]; 7 mg, cycle 2, day 1, QDx5dQW 7 mg
  Cmax: 49.7 ng/mL
[3]; 7 mg, cycle 2, day 1, QDx5dQW 7 mg, read-out: AUC0–24h [%CV]
  AUC(0-t): 362 ng·h/mL
[3]; 7 mg, cycle 2, day 1, QDx5dQW 7 mg, read-out: t½ (converted)
  half-life: 402 min
[3]; 7 mg, cycle 2, day 1, QW 7 mg, read-out: AUC0–24h [%CV]
  AUC(0-t): 351 ng·h/mL
[3]; 7 mg, cycle 2, day 1, QW 7 mg, read-out: t½ (converted)
  half-life: 336 min
[3]; 9 mg, cycle 1, day 1, 9 mg
  Cmax: 75.9 ng/mL
[3]; 9 mg, cycle 1, day 1, 9 mg, read-out: AUC0–24h [%CV]
  AUC(0-t): 596 ng·h/mL
[3]; 9 mg, cycle 1, day 1, 9 mg, read-out: t½ (converted)
  half-life: 450 min
[3]; 9 mg, cycle 2, day 1, QDx3dQW 9 mg
  Cmax: 83.1 ng/mL
[3]; 9 mg, cycle 2, day 1, QDx3dQW 9 mg, read-out: AUC0–24h [%CV]
  AUC(0-t): 707 ng·h/mL
[3]; 9 mg, cycle 2, day 1, QDx3dQW 9 mg, read-out: Tmax, median
  Tmax: 2.1 h
[3]; 9 mg, cycle 2, day 1, QDx3dQW 9 mg, read-out: t½ (converted)
  half-life: 414 min
[3]; 10 mg, cycle 1, day 1, 10 mg
  Cmax: 48.4 ng/mL
[3]; 10 mg, cycle 1, day 1, 10 mg, read-out: AUC0–24h [%CV]
  AUC(0-t): 342 ng·h/mL
[3]; 10 mg, cycle 1, day 1, 10 mg, read-out: AUC0–last [%CV]
  AUC(0-t): 153 ng·h/mL
[3]; 10 mg, cycle 1, day 1, 10 mg, read-out: Tmax, median
  Tmax: 2.8 h
[3]; 10 mg, cycle 1, day 1, 10 mg, read-out: t½ (converted)
  half-life: 384 min
[3]; 10 mg, cycle 2, day 1, QDx5dQW 10 mg
  Cmax: 57 ng/mL
[3]; 10 mg, cycle 2, day 1, QDx5dQW 10 mg, read-out: AUC0–24h [%CV]
  AUC(0-t): 366 ng·h/mL
[3]; 10 mg, cycle 2, day 1, QDx5dQW 10 mg, read-out: t½ (converted)
  half-life: 342 min
[3]; 10 mg, cycle 2, day 1, QW 10 mg, read-out: Tmax, median
  Tmax: 2.9 h
[3]; 12 mg, cycle 1, day 1, 12 mg
  Cmax: 99.5 ng/mL
[3]; 12 mg, cycle 1, day 1, 12 mg, read-out: AUC0–24h [%CV]
  AUC(0-t): 730 ng·h/mL
[3]; 12 mg, cycle 1, day 1, 12 mg, read-out: t½ (converted)
  half-life: 444 min
[3]; 12 mg, cycle 2, day 1, QDx3dQW 12 mg
  Cmax: 113 ng/mL
[3]; 12 mg, cycle 2, day 1, QDx3dQW 12 mg, read-out: AUC0–24h [%CV]
  AUC(0-t): 707 ng·h/mL
[3]; 12 mg, cycle 2, day 1, QDx3dQW 12 mg, read-out: Tmax, median
  Tmax: 3.7 h
[3]; 12 mg, cycle 2, day 1, QDx3dQW 12 mg, read-out: t½ (converted)
  half-life: 294 min
[3]; 13 mg, cycle 1, day 1, 13 mg
  Cmax: 93.6 ng/mL
[3]; 13 mg, cycle 1, day 1, 13 mg, read-out: AUC0–24h [%CV]
  AUC(0-t): 953 ng·h/mL
[3]; 13 mg, cycle 1, day 1, 13 mg, read-out: Tmax, median
  Tmax: 2.1 h
[3]; 13 mg, cycle 1, day 1, 13 mg, read-out: t½ (converted)
  half-life: 522 min
[3]; 15 mg, cycle 1, day 1, 15 mg
  Cmax: 56.7 ng/mL
[3]; 15 mg, cycle 1, day 1, 15 mg, read-out: AUC0–24h [%CV]
  AUC(0-t): 518 ng·h/mL
[3]; 15 mg, cycle 1, day 1, 15 mg, read-out: t½ (converted)
  half-life: 564 min
[3]; 15 mg, cycle 2, day 1, QW 15 mg
  Cmax: 64.9 ng/mL
[3]; 15 mg, cycle 2, day 1, QW 15 mg, read-out: AUC0–24h [%CV]
  AUC(0-t): 604 ng·h/mL
[3]; 16 mg, cycle 1, day 1, 16 mg
  Cmax: 66.7 ng/mL
[3]; 16 mg, cycle 1, day 1, 16 mg, read-out: AUC0–24h [%CV]
  AUC(0-t): 689 ng·h/mL
[3]; 16 mg, cycle 1, day 1, 16 mg, read-out: Tmax, median
  Tmax: 2.1 h
[3]; 16 mg, cycle 1, day 1, 16 mg, read-out: t½ (converted)
  half-life: 420 min
[3]; 16 mg, cycle 2, day 1, QDx3dQW 16 mg
  Cmax: 92.1 ng/mL
[3]; 16 mg, cycle 2, day 1, QDx3dQW 16 mg, read-out: AUC0–24h [%CV]
  AUC(0-t): 744 ng·h/mL
[3]; 16 mg, cycle 2, day 1, QDx3dQW 16 mg, read-out: Tmax, median
  Tmax: 2.1 h
[3]; 20 mg, cycle 1, day 1, 20 mg
  Cmax: 154 ng/mL
[3]; 20 mg, cycle 1, day 1, 20 mg, read-out: AUC0–24h [%CV]
  AUC(0-t): 1260 ng·h/mL
[3]; 20 mg, cycle 1, day 1, 20 mg, read-out: Tmax, median
  Tmax: 2.1 h
[3]; 20 mg, cycle 1, day 1, 20 mg, read-out: t½ (converted)
  half-life: 390 min
[3]; 20 mg, cycle 2, day 1, QW 20 mg, read-out: Tmax, median
  Tmax: 4 h
[3]; 30 mg, cycle 1, day 1, 30 mg
  Cmax: 162 ng/mL
[3]; 30 mg, cycle 1, day 1, 30 mg, read-out: AUC0–24h [%CV]
  AUC(0-t): 1080 ng·h/mL
[3]; 30 mg, cycle 1, day 1, 30 mg, read-out: t½ (converted)
  half-life: 354 min
[3]; 30 mg, cycle 2, day 1, QW 30 mg
  Cmax: 133 ng/mL
[3]; 30 mg, cycle 2, day 1, QW 30 mg, read-out: AUC0–24h [%CV]
  AUC(0-t): 1120 ng·h/mL
[3]; 30 mg, cycle 2, day 1, QW 30 mg, read-out: Tmax, median
  Tmax: 4 h
[3]; 30 mg, cycle 2, day 1, QW 30 mg, read-out: t½ (converted)
  half-life: 342 min
[3]; 40 mg, cycle 1, day 1, 40 mg
  Cmax: 172 ng/mL
[3]; 40 mg, cycle 1, day 1, 40 mg, read-out: AUC0–24h [%CV]
  AUC(0-t): 1640 ng·h/mL
[3]; 40 mg, cycle 1, day 1, 40 mg, read-out: Tmax, median
  Tmax: 2.4 h
[3]; 40 mg, cycle 1, day 1, 40 mg, read-out: t½ (converted)
  half-life: 456 min
[3]; 40 mg, cycle 2, day 1, QW 40 mg
  Cmax: 232 ng/mL
[3]; 40 mg, cycle 2, day 1, QW 40 mg, read-out: AUC0–24h [%CV]
  AUC(0-t): 2220 ng·h/mL
[3]; 40 mg, cycle 2, day 1, QW 40 mg, read-out: t½ (converted)
  half-life: 384 min
[3]; range across all doses, read-out: Median Tmax
  Tmax: 1 to 2.8 h
[3]; range, 2–40 mg dose range, read-out: Mean plasma half-life
  half-life: 354 to 564 min
